Broadly, the MIC is the lowest concentration found to suppress growth. Read a low MIC as a more susceptible organism.

In brackets after ≈: the same amount, converted by molar mass.

The first assay deals with Botrytis cinerea. Briefly: Botrytis test (BEAN)/protective. The class given is in vivo. Particulars: sprayed, infected spots on leaves evaluated 3 days after inoculation. The method, then: Botrytis test (BEAN)/protective Solvent: 4.7 parts by weight of acetone Emulsifier: 0.3 parts by weight alkyl aryl polyglycol ether To produce a suitable preparation of active compound, 1 pat by weight of active compound is mixed with the stated amounts of solvent and emulsifier, and the concentrate is diluted with water to the desired concentration. To test for protective activity, young plants are sprayed with the preparation of active compound until dripping wet. After the spray coating has dried on, 2 small pieces of agar covered with Botrytis cinerea are placed on each leaf. The inoculated plants are placed in a darkened humidity chamber at 20° C. 3 days after the inoculation, the size of the infected spots on the leaves is evaluated.
For the compound `O=c1c(-c2c(F)cccc2Cl)c[nH]n1-c1ccccn1` [Example 11], the protective activity entry was “clearly superior activity compared with the prior art”.

On to `O=c1c(-c2ccc(Cl)cc2Cl)c[nH]n1-c1ccccn1` [Example 12], for which the protective activity result is “clearly superior activity compared with the prior art”.

On to `O=c1c(-c2ccccc2Cl)c[nH]n1-c1ncccn1` [Example 84], for which the protective activity result is on record as “clearly superior activity compared with the prior art”.

As for `O=c1c(-c2c(F)cccc2Cl)c[nH]n1-c1ncccn1` [Example 87], the protective activity entry is “clearly superior activity compared with the prior art”.

In the case of `O=c1c(-c2ccc(Cl)cc2Cl)c[nH]n1-c1ncccn1` [Example 88], the protective activity result was “clearly superior activity compared with the prior art”.

On to `O=c1c(-c2ccc(Cl)c(Cl)c2)c[nH]n1-c1ncccn1` [Example 89], for which the protective activity entry is on record as “clearly superior activity compared with the prior art”.

Regarding `Cc1ccccc1-c1c[nH]n(-c2ncccn2)c1=O` [Example 96], the protective activity result is given as “clearly superior activity compared with the prior art”.

With `Cc1ccccc1-c1c[nH]n(-c2ncc(Cl)cn2)c1=O` [Example 111], the protective activity entry was “clearly superior activity compared with the prior art”.

The test system of the next assay is Pyricularia oryzae.
Assay: not given
It counts as in vivo. Conditions: rice, sprayed, disease infestation 4 days after inoculation.
For the compound `O=c1c(-c2ccccc2Cl)c[nH]n1-c1ccccn1` [Example 7], the protective activity result is recorded as “clearly superior activity compared with the prior art”.

Take `O=c1c(-c2c(F)cccc2Cl)c[nH]n1-c1ccccn1` [Example 11]: the protective activity entry is on record as “clearly superior activity compared with the prior art”.

Take `O=c1c(-c2ccc(C(F)(F)F)cc2)c[nH]n1-c1ccccn1` [Example 25]: the protective activity entry is reported as “clearly superior activity compared with the prior art”.

Consider `Cc1ccc(-c2c[nH]n(-c3cc(C)c4ccccc4n3)c2=O)cc1` [Example 68], for which the protective activity entry was “clearly superior activity compared with the prior art”.

Turning to `Cc1cc(-n2[nH]cc(-c3ccc(C(F)(F)F)cc3)c2=O)cc(C)n1` [Example 80], the protective activity entry was “clearly superior activity compared with the prior art”.

With `O=c1c(-c2ccccc2Cl)c[nH]n1-c1ncccn1` [Example 84], the protective activity entry is reported as “clearly superior activity compared with the prior art”.

The test system of another assay is Cochliobolus sativus. Briefly: Cochliobolus sativus test (barley)/protective. The class given is in vivo. Particulars: sprayed, evaluation 7 days after inoculation. The method, then:
Cochliobolus sativus test (barley)/protective Solvent: 100 parts by weight of dimethylformamide Emulsifier: 0.25 parts by weight of alkylaryl polyglycol ether To produce a suitable preparation of active compound, 1 part by weight of active compound is mixed with the stated amounts of solvent and emulsifier, and the concentrate is diluted with water to the desired concentration. To test for protective activity, young plants are sprayed with the preparation of active compound until dew-moist. After the spray coating has dried on, the plants are sprayed with a conidia suspension of Cochliobolus sativus. The plants remain in an incubation cabinet for 48 hours at 20° C. and 100% relative atmospheric humidity. The plants are placed in a greenhouse at a temperature of about 20° C. and a relative atmospheric humidity of about 80%. Evaluation is carried out 7 days after the inoculation.
Regarding `O=c1c(-c2ccc(Cl)cc2Cl)c[nH]n1-c1ccccn1` [Example 12], the protective activity entry is “clearly superior activity compared with the prior art”.

Another assay has as its system Alternaria tenuis. Briefly: MIC on fungi in agar. Particulars: Alternaria alternata, 336 h.
Procedure: (§1) After storage for 2 weeks at 28° C. and 60 to 70% relative atmospheric humidity, the MIC is determined.
`O=c1c(-c2ccccc2Cl)c[nH]n1-c1ncccn1` [Example 84]: the minimal inhibitory concentration (MIC) amounted to 50 µg/mL (≈ 183 µM).

Another assay deals with Aspergillus niger. Briefly: MIC on fungi in agar. Particulars: 336 h.
Procedure: as §1
Regarding `O=c1c(-c2ccccc2Cl)c[nH]n1-c1ncccn1` [Example 84], the MIC amounted to 10 µg/mL (≈ 36.7 µM).

In a further assay the test system is Aureobasidium pullulans. Briefly: MIC on fungi in agar. Particulars: 336 h.
Procedure: as §1
`O=c1c(-c2ccccc2Cl)c[nH]n1-c1ncccn1` [Example 84] displayed a minimum inhibitory concentration (MIC) of 20 µg/mL (≈ 73.3 µM).

The subject of a further assay is Chaetomium globosum. Briefly: MIC on fungi in agar. Particulars: 336 h.
Procedure: as §1
As for `O=c1c(-c2ccccc2Cl)c[nH]n1-c1ncccn1` [Example 84], the MIC turned out to be 1.5 µg/mL (≈ 5.5 µM).

A further assay has as its system Coniophora puteana. The experiment in a line: MIC on fungi in agar. Particulars: 336 h.
Procedure: as §1
`O=c1c(-c2ccccc2Cl)c[nH]n1-c1ncccn1` [Example 84]: it took 2 µg/mL (≈ 7.33 µM) to inhibit growth (MIC).

The subject of a further assay is Lentinus tigrinus. Briefly: MIC on fungi in agar. Particulars: 336 h.
Procedure: as §1
Regarding `O=c1c(-c2ccccc2Cl)c[nH]n1-c1ncccn1` [Example 84], the minimum inhibitory concentration (MIC) was 50 µg/mL (≈ 183 µM).

Another assay relates to Penicillium glaucum. Briefly: MIC on fungi in agar. Particulars: 336 h.
Procedure: as §1
For `O=c1c(-c2ccccc2Cl)c[nH]n1-c1ncccn1` [Example 84], the minimal inhibitory concentration (MIC) came out at 20 µg/mL (≈ 73.3 µM).

The test system of the next assay is Polyporus versicolor. The experiment in a line: MIC on fungi in agar. Particulars: Trametes versicolor, 336 h.
Procedure: as §1
`O=c1c(-c2ccccc2Cl)c[nH]n1-c1ncccn1` [Example 84] showed an MIC of 35 µg/mL (≈ 128 µM).

Another assay concerns Sclerophoma pityophila. The experiment in a line: MIC on fungi in agar. Conditions: Sydowia polyspora, 336 h.
Procedure: as §1
In turn, `O=c1c(-c2ccccc2Cl)c[nH]n1-c1ncccn1` [Example 84] returned an MIC of 10 µg/mL (≈ 36.7 µM).

The subject of another assay is Trichoderma viride. The experiment in a line: MIC on fungi in agar. Conditions: 336 h.
Procedure: as §1
As to `O=c1c(-c2ccccc2Cl)c[nH]n1-c1ncccn1` [Example 84], the MIC stood at 35 µg/mL (≈ 128 µM).
